Key:
Format in all cases: in vivo
Erysiphe necator = assay: Example 9: greenhouse control of Erysiphe necator in grape plants; details: rate 45 gr (A.I.)/ha
Procedure: • An experiment was conducted in controlled conditions under a greenhouse to evaluate the fungicidal activity of the mixture comprising (1) phthalimide fungicide (folpet, captan) and (2) demethylation inhibitor fungicide (difenoconazole) or a quinone outside inhibitors (azoxystrobin, pyraclostrobin), toward Erysiphe necator in grape plants, variety Barbera. In addition, the activity of phthalimide with two fungicides (A); demethylation inhibitor fungicide (difenoconazole) or a quinone outside inhibitors (azoxystrobin, pyraclostrobin and dehydrogenase inhibitor fungicide (fluxapyroxad) was also tested. • The experiment was conducted by applying compositions of fluxapyroxad, difenoconazole (Score® 10 WG), azoxystrobin (Ortiva®), pyraclostrobin (Cabrio® EC) and folpet (Folpan 80 WDG®) alone or together. The compositions were diluted with water. Water amount used was equivalent to 800 L/ha. Application was performed in an automatic spraying cabin equipped with 2 flatfan AI11003VS nozzles. • Treatments: • Folpet 1000 gr (A.I.)/ha • Fluxapyroxad 45 gr (A.I.)/ha • Difenoconazole 37.5 gr (A.I.)/ha • Difenoconazole 37.5 gr (A.I.)/ha+folpet 1000 gr (A.I.)/ha • Azoxystrobin 90 gr (A.I.)/ha • Azoxystrobin 90 gr (A.I.)/ha+folpet 1000 gr (A.I.)/ha • Pyraclostrobin 75 gr (A.I.)/ha • Pyraclostrobin 75 gr (A.I.)/ha+folpet 1000 gr (A.I.)/ha • Fluxapyroxad 45 gr (A.I.)/ha+Difenoconazole 37.5 gr (A.I.)/ha • Fluxapyroxad 45 gr (A.I.)/ha+Difenoconazole 37.5 gr (A.I.)/ha+folpet 1000 gr (A.I.)/ha • Azoxystrobin 90 gr (A.I.)/ha+Fluxapyroxad 45 gr (A.I.)/ha • Azoxystrobin 90 gr (A.I.)/ha+Fluxapyroxad 45 gr (A.I.)/ha+folpet 1000 gr (A.I.)/ha • Azoxystrobin 90 gr (A.I.)/ha+Difenoconazole 37.5 gr (A.I.)/ha • Azoxystrobin 90 gr (A.I.)/ha+Difenoconazole 37.5 gr (A.I.)/ha+folpet 1000 gr (A.I.)/ha • Pyraclostrobin 75 gr (A.I.)/ha+Fluxapyroxad 45 gr (A.I.)/ha • Pyraclostrobin 75 gr (A.I.)/ha+Fluxapyroxad 45 gr (A.I.)/ha+folpet 1000 gr (A.I.)/ha • Pyraclostrobin 75 gr (A.I.)/ha+Difenoconazole 37.5 gr (A.I.)/ha • Pyraclostrobin 75 gr (A.I.)/ha+Difenoconazole 37.5 gr (A.I.)/ha+folpet 1000 gr (A.I.)/ha • To test for fungicidal control of Erysiphe necator, the grape plants were sprayed with each of the above treatments. Each of the above treatments was applied from 4 to 10 times according to the disease development, applications occurring 7-14 days after the previous treatment. The treatments were composed of 4 replicates. • Evaluations were performed for the whole duration of the experiment. At each time the incidence and the severity of Erysiphe necator on plants parts was determined.

Plasmopara viticola [1] = assay: Example 22: greenhouse control of Plasmopara viticola in grape, fluxapyroxad and folpet; details: variety Barbera
[2] = test system: Zymoseptoria tritici Tri-R6 strain; details: 28 days; comparison with FLUXAPYROXAD alone
Alternaria solani [3] = assay: Example 4: greenhouse control of Alternaria solani in tomato seedlings, phthalimides with DMI and/or fluxapyroxad; details: Table 9; captan or folpet 1200, difenoconazole 75, tebuconazole 150, fluxapyroxad 75 gAI/ha; one spray 1 day before inoculation
Plasmopara viticola [4] = assay: Example 7: greenhouse control of Plasmopara viticola in grape plants, folpet with partners; details: rate 45 gr (A.I.)/ha
Sphaerotheca fuliginea = assay: Example 10: greenhouse control of Sphaerotheca fuliginea on melon plants; details: rate 75 gr (A.I.)/ha
Alternaria solani [5] = assay: Example 5: greenhouse control of Alternaria solani in tomato, phthalimides with azoxystrobin and/or fluxapyroxad
Venturia inaequalis [6] = assay: Example 13: greenhouse control of apple scab, fluxapyroxad and captan
Venturia inaequalis [7] = assay: Example 2: greenhouse control of apple scab, phthalimides with cyprodinil and/or fluxapyroxad; details: Table 6; captan or folpet 1200, cyprodinil 300, fluxapyroxad 90 gAI/ha; one spray 1 day before inoculation

Cn1cc(C(=O)Nc2ccccc2-c2cc(F)c(F)c(F)c2)c(C(F)F)n1 [FLUXAPIROXAD, fluxapyroxad]
% control observed on leaves 21 DAYS after the application (Erysiphe necator): 68.7% | effect against Plasmopara viticola (Plasmopara viticola [1]): limited effect | efficacy in the treated area [2]: better protection than when used with SULPHUR or CHLOROTHALONIL | % control observed on leaves 20 DAYS after the application (Alternaria solani [3]): 60.4% | % control observed on leaves 21 DAYS after the application (Plasmopara viticola [4]): 35.1% | % control observed on leaves 21 DAYS after the application (Sphaerotheca fuliginea): 72.5% | % control observed on leaves 20 DAYS after the application (Alternaria solani [5]; Table 10, captan or folpet 1200, azoxystrobin 120, fluxapyroxad 75 gAI/ha, one spray 1 day before inoculation): 66.6% | % control observed on leaves 14 DAYS after the application (Alternaria solani [5]; rate 75 gAI/ha, tomato): 75.3% | % control observed on leaves 20 DAYS after the application (Alternaria solani [5]; rate 75 gAI/ha, tomato): 66.6% | Var % (14/20 DAYS) (Alternaria solani [5]; rate 75 gAI/ha, tomato): −11.6% | % control observed on leaves 26 DAYS after the application (Venturia inaequalis [6]; rate 45 gAI/ha): 38.6% | % control observed on leaves 26 DAYS after the application (Venturia inaequalis [6]; rate 55 gAI/ha): 61.7% | % control observed on leaves 26 DAYS after the application (Venturia inaequalis [6]; rate 75 gAI/ha): 78.4% | % control observed on leaves 26 DAYS after the application (Venturia inaequalis [6]; rate 90 gAI/ha): 86.6% | % control observed on leaves 26 DAYS after the application (Venturia inaequalis [7]): 75%

Reference: patent US20230270113A1, “FUNGICIDAL MIXTURES” (Adama Makhteshim Ltd., priority 2020, published 2023)
